# Data published in patent US20220409620A1, “REDUCING IMMUNOGENICITY TO PEGLOTICASE” (Horizon Pharma Rheumatology LLC, priority 2016, published 2022).
# Like-named read-outs stand apart in the source and are kept apart here.
# Columns and labels:
# [1] = system: adult patients with uncontrolled gout; assay: Patient and physician global assessment of gout, open-label study; type: in vivo, human; conditions: Methotrexate Baseline, mITT Population
# Text: Patient Global Assessment: The patient global assessment was collected at the Screening and Week −4 (prior to the first dose of MTX) Visits during the MTX Run-in Period; prior to KXX infusion at the Day 1 and Weeks 14, 24 and 36 Visits during the KXX+MTX Period; at the End of Pegloticase Infusions Visit (if applicable); the Week 52/End of Study/Early Termination Visit and the Post Treatment Periods 3 and 6 Month Follow-up Visits.
# Physician Global Assessment: The physician global assessment was collected at the Screening and Week −4 or week −6 (prior to the first dose of MTX) Visits during the MTX Run-in Period for the open-label and randomized studies, respectively; prior to pegloticase infusion at the Day 1 and Weeks 14, 24 and 36 Visits, and the Day 1 and week 6, 14, 20, 24, 30, 36, and 44 visits during the Pegloticase+IMM Period for the open-label and randomized studies, respectively; at the End of Pegloticase Infusions Visit (if applicable), the Week 52/End of Study/Early Termination Visit and the Post Treatment Periods 3 and 6 Month Follow-up Visits (open-label study).
# [2] = system: patients with refractory chronic gout; conditions: cited from earlier work; for patients maintaining a response to pegloticase: another study
# [3] = Pegloticase serum concentrations (Cmax, Cmin), enzymatic/fluorescence assay, MIRROR OL; type: in vivo, human; conditions: with MTX Co-Treatment
# Text: Pharmacokinetic and Anti-drug Antibody Measurements: Serum samples for PK analysis of pegloticase were collected prior to the pegloticase infusion and after the end of infusion (prior to discharge) on Day 1 and at the Weeks 2, 4, 6, 8 and 36 Visits or weeks 2, 6, 14, 24, 36, for the open-label and randomized studies, respectively, and prior to the pegloticase infusion only at the Weeks 10, 14, 18, 22, 24 (open-label study); at the End of Pegloticase Infusions Visit (if applicable); and the Week 52/End of Study/Early Termination Visits. Visits for frequent sampling of a subset of subjects who consent for additional non-infusion visit PK sampling occurred at Weeks 1 and 7 or at week 21 for the open-label and randomized studies, respectively.
# An enzymatic/fluorescence assay was used to quantitate pegloticase concentrations in serum. In the assay, pegloticase catalyzes the conversion of UA to allantoin, thus releasing hydrogen peroxide (H2O2) and carbon dioxide. In the presence of horseradish peroxidase, H2O2 reacts with a 1:1 stoichiometry with Amplex Ultra Red (Molecular Probes, Inc., Eugene, Oreg.) to generate the red fluorescence oxidation product, resorufin. The concentration of resorufin, which is determined by fluorometry, is proportional to the amount of active pegloticase present in the serum samples. The lower limit of detection established in previous studies has been determined to be 0.6 μg/mL.
# Methods: In the MIRROR OL trial, MTX (15 mg/week) was given orally 4 weeks prior to the first pegloticase dose and continued weekly, in combination with pegloticase 8 mg given intravenously every 2 weeks, for a treatment duration of up to 52 weeks. Pre-infusion samples were collected to measure MTX-PGs 1 to 5 in red blood cells at day 1, week 4, 8, 22, 24 and 36. […] Pegloticase concentrations in serum was measured using a validated enzymatic/fluorescence assay. The limit of quantification is 0.6 μg/mL. Anti-pegloticase/PEG IgG antibodies (ADA) were measured using a validated enzyme linked immunosorbent assay (ELISA). The analysis of MTX Polyglutamates was conducted by Exagen. The impact of MTX on pegloticase PK was evaluated by two methods: (1) Comparing pegloticase exposures (median Cmax and Cmin across visits) with MTX from the MIRROR OL trial to the observed levels in historical monotherapy Phase 3 studies (C0405 and C0406) (Lipsky et al., Arthritis Res Ther 16(2), 2014; Sundy et al., JAMA 306(7), 2011). Overlaying observed pegloticase concentrations with MTX against the 90% prediction band of pegloticase concentrations following monotherapy based on the population PK model from the Phase 3 data (Yue et al., ASCPT. Atlanta, 2010).
# [4] = system: subjects with refractory gout; conditions: after doses of 4 to 12 mg; from 11.1±0.6 mg/dL; cited from earlier work
# [5] = End of Pegloticase Infusions Visit
substance,measurement,setting,value
pegloticase,"Patient Global Assessment of Gout, Change from Baseline, Mean (SD)",[1]; Day 1,0.2 (1.85)
same,"Patient Global Assessment of Gout, Change from Baseline, Median",[1]; Day 1,0.0
same,"Patient Global Assessment of Gout, Observed, Mean (SD)",[1]; Day 1,5.8 (1.76)
same,"Patient Global Assessment of Gout, Observed, Median",[1]; Day 1,6.0
same,"Physician Global Assessment of Gout, Change from Baseline, Mean (SD)",[1]; Day 1,−0.1 (2.35)
same,"Physician Global Assessment of Gout, Change from Baseline, Median",[1]; Day 1,0.0
same,"Physician Global Assessment of Gout, Observed, Mean (SD)",[1]; Day 1,6.0 (2.45)
same,"Physician Global Assessment of Gout, Observed, Median",[1]; Day 1,7.0
same,"Patient Global Assessment of Gout, Change from Baseline, Mean (SD)",[1]; Early Termination Visit,0.7 (2.89)
same,"Patient Global Assessment of Gout, Change from Baseline, Median",[1]; Early Termination Visit,−1.0
same,"Patient Global Assessment of Gout, Observed, Mean (SD)",[1]; Early Termination Visit,5.7 (3.06)
same,"Patient Global Assessment of Gout, Observed, Median",[1]; Early Termination Visit,5.0
same,"Physician Global Assessment of Gout, Change from Baseline, Mean (SD)",[1]; Early Termination Visit,−2.7 (2.08)
same,"Physician Global Assessment of Gout, Change from Baseline, Median",[1]; Early Termination Visit,−2.0
same,"Physician Global Assessment of Gout, Observed, Mean (SD)",[1]; Early Termination Visit,3.7 (2.08)
same,"Physician Global Assessment of Gout, Observed, Median",[1]; Early Termination Visit,3.0
same,"Patient Global Assessment of Gout, Change from Baseline, Mean (SD)",[1]; [5],−4.0 (4.24)
same,"Patient Global Assessment of Gout, Change from Baseline, Median",[1]; [5],−4.0
same,"Patient Global Assessment of Gout, Observed, Mean (SD)",[1]; [5],2.0 (2.83)
same,"Patient Global Assessment of Gout, Observed, Median",[1]; [5],2.0
same,"Physician Global Assessment of Gout, Change from Baseline, Mean (SD)",[1]; [5],−7.0 (0.00)
same,"Physician Global Assessment of Gout, Change from Baseline, Median",[1]; [5],−7.0
same,"Physician Global Assessment of Gout, Observed, Mean (SD)",[1]; [5],0.5 (0.71)
same,"Physician Global Assessment of Gout, Observed, Median",[1]; [5],0.5
same,"Patient Global Assessment of Gout, Change from Baseline, Mean (SD)",[1]; Week 14,−2.5 (2.77)
same,"Patient Global Assessment of Gout, Change from Baseline, Median",[1]; Week 14,−2.5
same,"Patient Global Assessment of Gout, Observed, Mean (SD)",[1]; Week 14,3.1 (2.27)
same,"Patient Global Assessment of Gout, Observed, Median",[1]; Week 14,3.0
same,"Physician Global Assessment of Gout, Change from Baseline, Mean (SD)",[1]; Week 14,−4.2 (2.22)
same,"Physician Global Assessment of Gout, Change from Baseline, Median",[1]; Week 14,−5.0
same,"Physician Global Assessment of Gout, Observed, Mean (SD)",[1]; Week 14,1.9 (1.64)
same,"Physician Global Assessment of Gout, Observed, Median",[1]; Week 14,2.0
same,"Patient Global Assessment of Gout, Change from Baseline, Mean (SD)",[1]; Week 24,−3.7 (3.23)
same,"Patient Global Assessment of Gout, Change from Baseline, Median",[1]; Week 24,−3.0
same,"Patient Global Assessment of Gout, Observed, Mean (SD)",[1]; Week 24,2.0 (1.79)
same,"Patient Global Assessment of Gout, Observed, Median",[1]; Week 24,3.0
same,"Physician Global Assessment of Gout, Change from Baseline, Mean (SD)",[1]; Week 24,−5.3 (2.10)
same,"Physician Global Assessment of Gout, Change from Baseline, Median",[1]; Week 24,−6.0
same,"Physician Global Assessment of Gout, Observed, Mean (SD)",[1]; Week 24,0.8 (0.87)
same,"Physician Global Assessment of Gout, Observed, Median",[1]; Week 24,1.0
same,"Patient Global Assessment of Gout, Change from Baseline, Mean (SD)",[1]; Week 36,−3.4 (2.92)
same,"Patient Global Assessment of Gout, Change from Baseline, Median",[1]; Week 36,−4.0
same,"Patient Global Assessment of Gout, Observed, Mean (SD)",[1]; Week 36,2.1 (2.80)
same,"Patient Global Assessment of Gout, Observed, Median",[1]; Week 36,1.0
same,"Physician Global Assessment of Gout, Change from Baseline, Mean (SD)",[1]; Week 36,−5.9 (2.03)
same,"Physician Global Assessment of Gout, Change from Baseline, Median",[1]; Week 36,−6.0
same,"Physician Global Assessment of Gout, Observed, Mean (SD)",[1]; Week 36,0.7 (1.00)
same,"Physician Global Assessment of Gout, Observed, Median",[1]; Week 36,0.0
same,"Patient Global Assessment of Gout, Change from Baseline, Mean (SD)",[1]; Week 52/ET,−4.3 (0.58)
same,"Patient Global Assessment of Gout, Change from Baseline, Median",[1]; Week 52/ET,−4.0
same,"Patient Global Assessment of Gout, Observed, Mean (SD)",[1]; Week 52/ET,1.0 (1.00)
same,"Patient Global Assessment of Gout, Observed, Median",[1]; Week 52/ET,1.0
same,"Physician Global Assessment of Gout, Change from Baseline, Mean (SD)",[1]; Week 52/ET,−7.3 (0.58)
same,"Physician Global Assessment of Gout, Change from Baseline, Median",[1]; Week 52/ET,−7.0
same,"Physician Global Assessment of Gout, Observed, Mean (SD)",[1]; Week 52/ET,1.0 (0.00)
same,"Physician Global Assessment of Gout, Observed, Median",[1]; Week 52/ET,1.0
same,Non-responders,[2]; C0405 and C0406,49/85
same,patients maintaining a response to pegloticase,"[2]; antibody titer exceeding 1:2430 at any time during treatment, 7 of 65",10.8%
same,patients maintaining a response to pegloticase,"[2]; never had an antibody titer above 1:2430, 58/65",89.2%
same,Responders (sUA <6 mg/dL for at least 80% of the time during month 6),"[2]; historical Phase 3 monotherapy trials C0405 and C0406, 36/85",42%
same,response rate during Month 6,"[2]; pegloticase 8 mg every 2 weeks, phase 3 studies",43%
same,proportion of responders during Month 6,[2]; phase 3 studies,43.5%
same,incidence of infusion-related reactions,"[2]; pooled Phase 3, 8 mg biweekly dosing",26%
same,incidence of infusion-related reactions,"[2]; pooled Phase 3, 8 mg every-4-week dosing regimen",40%
same,pegloticase-treated patients with IRs in whom loss of response (return to SUA >6 mg/dL) preceded the first IR,"[2]; pooled Phase 3, 20/21",95%
same,infusion reactions reported,"[2]; pre-marketing controlled clinical trials, 8 mg every 2 weeks",26%
same,anaphylaxis frequency,[2]; pre-marketing controlled clinical trials,6.5%
same,participants with high antibody titers who maintained a response (serum urate <6 mg/dL),[2]; second study,1 of 52 participants
same,participants with high titers who developed IR,[2]; second study,60%
same,patients who developed IRs,"[2]; titers exceeding 1:2430, 31 of 52",60%
same,patients with Cmin below quantitation limit,"[2]; without MTX, 63/82",77%
same,"pegloticase overall Cmin, median","[2]; without MTX, historical monotherapy, BQL = below quantitation limit of 0.6 μg/mL",BQL
same,"pegloticase Cmax, median","[2]; without MTX, historical monotherapy",1510 ng/mL
same,"Cmax BQL, %",[3]; Quantitation Limit 0.6 μg/mL,0%
same,"Cmax BQL, n/N",[3]; Quantitation Limit 0.6 μg/mL,0/14
same,"Cmin BQL, %",[3]; Quantitation Limit 0.6 μg/mL,36%
same,"Cmin BQL, n/N",[3]; Quantitation Limit 0.6 μg/mL,5/14
same,"Cmax, Median (Q1, Q3)","[3]; serum, BQL: below 0.6 μg/mL","2.11 (1.65, 2.59) μg/mL"
same,"Cmin, Median (Q1, Q3)","[3]; serum, BQL: below 0.6 μg/mL","1.03 (BQL, 1.23) μg/mL"
same,"plasma urate concentration (pUAc) after dosing, mean±SD",[4],1.0±0.5 mg/dL
